Reference: PubChem BioAssay (NCI)
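Here, GI50 denotes the concentration required for 50% inhibition of growth. At the TGI there is no net growth.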

Tests used:
Experiment in all cases: growth of human tumour cells (NCI), 384-well format
IGROV1 ovarian = test system: IGROV1 ovarian
SNB-75 CNS = test system: SNB-75 CNS
PC-3 prostate = test system: PC-3 prostate
HCT-116 colon = test system: HCT-116 colon
T-47D breast = test system: T-47D breast
KM12 colon = test system: KM12 colon
A498 renal = test system: A498 renal
HCT-15 colon = test system: HCT-15 colon
EKVX NSCLC = test system: EKVX NSCLC
HOP-92 NSCLC = test system: HOP-92 NSCLC
SK-MEL-28 melanoma = test system: SK-MEL-28 melanoma
786-0 renal = test system: 786-0 renal
COLO 205 colon = test system: COLO 205 colon
SK-MEL-5 melanoma = test system: SK-MEL-5 melanoma
HCC-2998 colon = test system: HCC-2998 colon
SNB-19 CNS = test system: SNB-19 CNS
NCI-H460 NSCLC = test system: NCI-H460 NSCLC
NCI/ADR-RES ovarian = test system: NCI/ADR-RES ovarian
A549 NSCLC = test system: A549 NSCLC
NCI-H226 lung = test system: NCI-H226 lung
TK-10 renal = test system: TK-10 renal
MDA-MB-435 melanoma = test system: MDA-MB-435 melanoma
MALME-3M melanoma = test system: MALME-3M melanoma
SW-620 colon = test system: SW-620 colon
RPMI-8226 leukemia = test system: RPMI-8226 leukemia
CAKI-1 renal = test system: CAKI-1 renal
NCI-H322M lung = test system: NCI-H322M lung
OVCAR-4 ovarian = test system: OVCAR-4 ovarian
NCI-H23 lung = test system: NCI-H23 lung
UO-31 renal = test system: UO-31 renal
HS 578T breast = test system: HS 578T breast
OVCAR-3 ovarian = test system: OVCAR-3 ovarian
UACC-257 melanoma = test system: UACC-257 melanoma
BT-549 breast = test system: BT-549 breast
NCI-H522 lung = test system: NCI-H522 lung
OVCAR-8 ovarian = test system: OVCAR-8 ovarian
OVCAR-5 ovarian = test system: OVCAR-5 ovarian
K-562 leukemia = test system: K-562 leukemia
LOX IMVI melanoma = test system: LOX IMVI melanoma
MDA-MB-231 breast = test system: MDA-MB-231 breast
RXF 393 renal = test system: RXF 393 renal
SK-OV-3 ovarian = test system: SK-OV-3 ovarian
HT29 colon = test system: HT29 colon
HOP-62 NSCLC = test system: HOP-62 NSCLC
MCF7 breast = test system: MCF7 breast
M14 melanoma = test system: M14 melanoma
HL-60(TB) leukemia = test system: HL-60(TB) leukemia
ACHN renal = test system: ACHN renal
SF-295 CNS = test system: SF-295 CNS
MDA-MB-468 breast = test system: MDA-MB-468 breast
SN12C renal = test system: SN12C renal
MOLT-4 leukemia = test system: MOLT-4 leukemia
DU-145 prostate = test system: DU-145 prostate
CCRF-CEM leukemia = test system: CCRF-CEM leukemia
SF-268 CNS = test system: SF-268 CNS
SF-539 CNS = test system: SF-539 CNS
SR leukemia = test system: SR leukemia
UACC-62 melanoma = test system: UACC-62 melanoma

CCc1c2c(nc3ccc(O)cc13)-c1cc3c(c(=O)n1C2)COC(=O)[C@]3(O)CC
GI50 (IGROV1 ovarian): 0.0247 µM
TGI (IGROV1 ovarian): 1.05 µM
TGI (SNB-75 CNS): 0.0141 µM
GI50 (PC-3 prostate): 0.115 µM
TGI (PC-3 prostate): 4.66 µM
TGI (HCT-116 colon): 0.114 µM
TGI (T-47D breast): 0.0155 µM
GI50 (KM12 colon): 0.0205 µM
TGI (KM12 colon): 0.153 µM
TGI (A498 renal): 0.129 µM
TGI (HCT-15 colon): 0.137 µM
GI50 (EKVX NSCLC): 0.0897 µM
TGI (EKVX NSCLC): 2.63 µM
TGI (HOP-92 NSCLC): 0.0644 µM
TGI (SK-MEL-28 melanoma): 0.156 µM
TGI (786-0 renal): 0.0125 µM
TGI (COLO 205 colon): 1.06 µM
TGI (SK-MEL-5 melanoma): 0.0169 µM
TGI (HCC-2998 colon): 0.0754 µM
TGI (SNB-19 CNS): 0.0163 µM
TGI (NCI-H460 NSCLC): 0.0156 µM
TGI (NCI/ADR-RES ovarian): 0.0303 µM
GI50 (A549 NSCLC): 0.0344 µM
TGI (A549 NSCLC): 1.06 µM
TGI (NCI-H226 lung): 0.135 µM
GI50 (TK-10 renal): 0.0351 µM
TGI (TK-10 renal): 0.919 µM
GI50 (MDA-MB-435 melanoma): 0.0331 µM
TGI (MDA-MB-435 melanoma): 0.266 µM
GI50 (MALME-3M melanoma): 0.0131 µM
TGI (MALME-3M melanoma): 0.297 µM
TGI (SW-620 colon): 0.239 µM
TGI (RPMI-8226 leukemia): 0.0616 µM
TGI (CAKI-1 renal): 0.0926 µM
GI50 (NCI-H322M lung): 0.0223 µM
TGI (NCI-H322M lung): 0.12 µM
GI50 (OVCAR-4 ovarian): 0.0478 µM
TGI (OVCAR-4 ovarian): 0.224 µM
TGI (NCI-H23 lung): 0.0133 µM
TGI (UO-31 renal): 0.0495 µM
GI50 (HS 578T breast): 0.14 µM
TGI (HS 578T breast): 1.93 µM
TGI (OVCAR-3 ovarian): 0.0364 µM
GI50 (UACC-257 melanoma): 0.0118 µM
TGI (UACC-257 melanoma): 0.285 µM
TGI (BT-549 breast): 0.0264 µM
TGI (NCI-H522 lung): 0.0316 µM
TGI (OVCAR-8 ovarian): 0.0478 µM
GI50 (OVCAR-5 ovarian): 0.0398 µM
TGI (OVCAR-5 ovarian): 0.249 µM
TGI (K-562 leukemia): 0.292 µM
TGI (LOX IMVI melanoma): 0.0238 µM
GI50 (MDA-MB-231 breast): 0.128 µM
TGI (MDA-MB-231 breast): 3.8 µM
TGI (RXF 393 renal): 0.0264 µM
TGI (SK-OV-3 ovarian): 0.0175 µM

CCCCCCCCCCCCCCCCCCOP(=O)([O-])OC1CC[N+](C)(C)CC1
GI50 (IGROV1 ovarian): 1.67 µM
TGI (IGROV1 ovarian): 3.99 µM
GI50 (HT29 colon): 2.9 µM
TGI (HT29 colon): 12.9 µM
GI50 (SNB-75 CNS): 68.8 µM
TGI (SNB-75 CNS): > 100 µM
GI50 (HOP-62 NSCLC): 11.4 µM
TGI (HOP-62 NSCLC): 28.4 µM
GI50 (PC-3 prostate): 0.362 µM
TGI (PC-3 prostate): 1.4 µM
GI50 (MCF7 breast): 57.5 µM
TGI (MCF7 breast): > 100 µM
GI50 (T-47D breast): 29.6 µM
TGI (T-47D breast): > 100 µM
GI50 (KM12 colon): 0.757 µM
TGI (KM12 colon): 10.1 µM
GI50 (M14 melanoma): 21.1 µM
TGI (M14 melanoma): 62.8 µM
GI50 (A498 renal): 17.2 µM
TGI (A498 renal): 92.2 µM
GI50 (HCT-15 colon): 3.21 µM
TGI (HCT-15 colon): 11 µM
GI50 (EKVX NSCLC): 32.5 µM
TGI (EKVX NSCLC): > 100 µM
GI50 (HOP-92 NSCLC): 11.6 µM
TGI (HOP-92 NSCLC): 24.6 µM
GI50 (SK-MEL-28 melanoma): > 100 µM
TGI (SK-MEL-28 melanoma): > 100 µM
GI50 ([…]-0 renal): 7.36 µM
TGI (786-0 renal): 31.3 µM
GI50 (COLO 205 colon): 1.29 µM
TGI (COLO 205 colon): 16 µM
GI50 (SK-MEL-5 melanoma): > 100 µM
TGI (SK-MEL-5 melanoma): > 100 µM
GI50 (HCC-2998 colon): 4.59 µM
TGI (HCC-2998 colon): 26 µM
GI50 (HL-60(TB) leukemia): 1.45 µM
TGI (HL-60(TB) leukemia): 2.85 µM
GI50 (SNB-19 CNS): 21.3 µM
TGI (SNB-19 CNS): 77 µM
GI50 (ACHN renal): 15.9 µM
TGI (ACHN renal): 30.6 µM
GI50 (SF-295 CNS): 11.7 µM
TGI (SF-295 CNS): 61.9 µM
GI50 (MDA-MB-468 breast): 23.2 µM
TGI (MDA-MB-468 breast): 49 µM
GI50 (NCI-H460 NSCLC): 1.47 µM
TGI (NCI-H460 NSCLC): 14.7 µM
GI50 (SN12C renal): 25.5 µM
TGI (SN12C renal): 98 µM
GI50 (MOLT-4 leukemia): 7.26 µM
TGI (MOLT-4 leukemia): 19.9 µM
GI50 (NCI/ADR-RES ovarian): > 100 µM
TGI (NCI/ADR-RES ovarian): > 100 µM
GI50 (A549 NSCLC): 14.4 µM
TGI (A549 NSCLC): 28 µM
GI50 (NCI-H226 lung): 50 µM
TGI (NCI-H226 lung): > 100 µM
GI50 (TK-10 renal): 1.48 µM
TGI (TK-10 renal): 3 µM
GI50 (MDA-MB-435 melanoma): > 100 µM
TGI (MDA-MB-435 melanoma): > 100 µM
GI50 (MALME-3M melanoma): > 100 µM
TGI (MALME-3M melanoma): > 100 µM
GI50 (SW-620 colon): 10 µM
TGI (SW-620 colon): > 100 µM
GI50 (RPMI-8226 leukemia): 0.32 µM
TGI (RPMI-8226 leukemia): 0.819 µM
GI50 (CAKI-1 renal): 10.8 µM
TGI (CAKI-1 renal): 24.5 µM
GI50 (DU-145 prostate): 36.4 µM
TGI (DU-145 prostate): > 100 µM
GI50 (NCI-H322M lung): 60.9 µM
TGI (NCI-H322M lung): > 100 µM
GI50 (OVCAR-4 ovarian): 25.7 µM
TGI (OVCAR-4 ovarian): 76.6 µM
GI50 (CCRF-CEM leukemia): 1.8 µM
TGI (CCRF-CEM leukemia): 4.79 µM
GI50 (SF-268 CNS): 22.2 µM
TGI (SF-268 CNS): 85.7 µM
GI50 (NCI-H23 lung): > 100 µM
TGI (NCI-H23 lung): > 100 µM
GI50 (SF-539 CNS): > 100 µM
TGI (SF-539 CNS): > 100 µM
GI50 (UO-31 renal): 45.9 µM
TGI (UO-31 renal): > 100 µM
GI50 (SR leukemia): 0.406 µM
TGI (SR leukemia): 2 µM
GI50 (HS 578T breast): 32.8 µM
TGI (HS 578T breast): > 100 µM
GI50 (OVCAR-3 ovarian): 64 µM
TGI (OVCAR-3 ovarian): > 100 µM
GI50 (UACC-257 melanoma): > 100 µM
TGI (UACC-257 melanoma): > 100 µM
GI50 (BT-549 breast): 11.5 µM
TGI (BT-549 breast): 24.3 µM
GI50 (NCI-H522 lung): 8.69 µM
TGI (NCI-H522 lung): 23.1 µM
GI50 (OVCAR-8 ovarian): 39.9 µM
TGI (OVCAR-8 ovarian): > 100 µM
GI50 (OVCAR-5 ovarian): 6.35 µM
TGI (OVCAR-5 ovarian): 36.4 µM
GI50 (K-562 leukemia): 61.5 µM
TGI (K-562 leukemia): > 100 µM
GI50 (LOX IMVI melanoma): 16.9 µM
TGI (LOX IMVI melanoma): 54 µM
GI50 (MDA-MB-231 breast): 15.9 µM
TGI (MDA-MB-231 breast): 52.7 µM
GI50 (UACC-62 melanoma): 23.2 µM
TGI (UACC-62 melanoma): > 100 µM
GI50 (RXF 393 renal): 2.87 µM
TGI (RXF 393 renal): 18.1 µM
GI50 (SK-OV-3 ovarian): > 100 µM
TGI (SK-OV-3 ovarian): > 100 µM
